Reference: ChEMBL document CHEMBL5579838, “Design, synthesis and antitumor activity of a novel FGFR2-selective degrader to overcome resistance of the FGFR2V564F gatekeeper mutation based on a pan-FGFR inhibitor” (Eur J Med Chem, 2024)
The source made the active and inactive calls. No cut-off for these calls is given here.

Experiments:
[1] = target: von Hippel-Lindau disease tumor suppressor/Fibroblast growth factor receptor 2 (Homo sapiens, UniProt P21802+P40337); test: PROTAC activity at VHL/FGFR2 in human KATO III cells assessed as induction of FGFR2 degradation incubated for 24 hrs by Western blot analysis; format: cell-based; conditions: kato iii stomach cancer cell line
von Hippel-Lindau disease tumor suppressor/Fibroblast growth factor receptor 2, sequence (P21802 whole entry): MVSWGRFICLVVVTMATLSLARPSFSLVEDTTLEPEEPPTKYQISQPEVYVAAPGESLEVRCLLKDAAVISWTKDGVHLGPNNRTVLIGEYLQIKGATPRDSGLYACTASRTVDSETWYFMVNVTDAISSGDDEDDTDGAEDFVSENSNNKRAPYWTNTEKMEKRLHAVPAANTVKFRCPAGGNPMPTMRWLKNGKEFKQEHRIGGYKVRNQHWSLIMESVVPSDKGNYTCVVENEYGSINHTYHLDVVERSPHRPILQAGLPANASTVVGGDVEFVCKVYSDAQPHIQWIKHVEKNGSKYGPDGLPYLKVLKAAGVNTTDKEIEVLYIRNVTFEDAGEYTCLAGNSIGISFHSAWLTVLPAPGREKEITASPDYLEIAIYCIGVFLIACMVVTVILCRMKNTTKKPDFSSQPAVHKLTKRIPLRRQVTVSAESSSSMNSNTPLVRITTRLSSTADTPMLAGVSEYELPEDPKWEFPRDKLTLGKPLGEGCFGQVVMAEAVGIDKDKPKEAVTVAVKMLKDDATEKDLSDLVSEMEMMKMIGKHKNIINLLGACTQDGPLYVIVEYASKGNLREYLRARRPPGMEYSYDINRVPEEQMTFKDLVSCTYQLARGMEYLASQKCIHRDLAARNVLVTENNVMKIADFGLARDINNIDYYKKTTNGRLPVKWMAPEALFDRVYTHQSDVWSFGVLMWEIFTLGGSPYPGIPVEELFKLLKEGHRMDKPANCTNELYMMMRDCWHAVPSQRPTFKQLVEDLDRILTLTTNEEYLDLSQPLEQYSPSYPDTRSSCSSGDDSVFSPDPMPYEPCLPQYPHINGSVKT
von Hippel-Lindau disease tumor suppressor/Fibroblast growth factor receptor 2, sequence (P40337 whole entry): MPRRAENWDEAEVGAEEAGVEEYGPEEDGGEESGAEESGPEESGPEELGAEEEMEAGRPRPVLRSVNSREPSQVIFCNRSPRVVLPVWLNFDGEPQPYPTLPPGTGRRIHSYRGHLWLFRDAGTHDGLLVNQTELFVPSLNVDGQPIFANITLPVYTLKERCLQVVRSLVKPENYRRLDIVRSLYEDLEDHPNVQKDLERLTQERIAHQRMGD

[2] = target: T1, Fibroblast growth factor receptor 3 (Homo sapiens, UniProt P22607); test: Induction of FGFR3 degradation in human MCF7 cells assessed as reduction in FGFR3 level at 0 to 300 nM measured after 24 hrs by Western blot analysis; format: cell-based; conditions: dose 0-300 nM
[3] = target: T2, Fibroblast growth factor receptor 4 (Homo sapiens, UniProt P22455); test: Induction of FGFR4 degradation in human Huh-7 cells assessed as reduction in FGFR4 level at 0 to 300 nM measured after 24 hrs by Western blot analysis; format: cell-based; conditions: dose 0-300 nM
[4] = target: T3, Fibroblast growth factor receptor 1 (Homo sapiens, UniProt P11362); test: Induction of FGFR1 degradation in human BXPC-3 cells assessed as reduction in FGFR1 level at 300 nM measured after 24 hrs by Western blot analysis relative to control; format: cell-based; design: scale not given: the % may be the effect or the level left
Target sequence in this assay (P11362 22-822 limits assumed): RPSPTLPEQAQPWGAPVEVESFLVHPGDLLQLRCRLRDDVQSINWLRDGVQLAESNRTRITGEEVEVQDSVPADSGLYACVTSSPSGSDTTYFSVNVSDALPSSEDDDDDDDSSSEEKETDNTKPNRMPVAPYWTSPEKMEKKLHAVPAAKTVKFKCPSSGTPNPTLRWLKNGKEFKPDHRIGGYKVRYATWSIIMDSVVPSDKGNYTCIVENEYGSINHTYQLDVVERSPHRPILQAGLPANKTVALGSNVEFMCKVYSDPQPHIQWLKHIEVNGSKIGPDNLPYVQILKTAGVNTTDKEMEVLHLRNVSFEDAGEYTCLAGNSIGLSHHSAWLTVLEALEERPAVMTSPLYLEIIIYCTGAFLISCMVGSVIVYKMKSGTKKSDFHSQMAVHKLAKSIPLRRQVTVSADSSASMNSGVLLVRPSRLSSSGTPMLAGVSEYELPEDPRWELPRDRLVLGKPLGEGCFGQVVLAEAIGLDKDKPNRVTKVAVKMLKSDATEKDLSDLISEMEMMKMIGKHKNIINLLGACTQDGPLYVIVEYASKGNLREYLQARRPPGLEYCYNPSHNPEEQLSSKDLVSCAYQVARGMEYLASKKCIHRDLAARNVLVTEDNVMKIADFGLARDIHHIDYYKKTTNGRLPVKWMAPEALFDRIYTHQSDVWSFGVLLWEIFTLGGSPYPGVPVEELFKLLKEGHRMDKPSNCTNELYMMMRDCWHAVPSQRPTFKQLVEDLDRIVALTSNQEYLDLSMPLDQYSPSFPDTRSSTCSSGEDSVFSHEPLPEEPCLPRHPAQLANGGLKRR

[5] = target: Vascular endothelial growth factor receptor 2 (Homo sapiens) (UniProt P35968); test: Induction of VEGFR2 (unknown origin) degradation
[6] = tested on: KATO III stomach cancer cell line; test: Inhibition of PLC-gamma autophosphorylation in human KATO III cells at 1 to 10 nM measured after 24 hrs by Western blot analysis; format: cell-based; conditions: dose 1-10 nM
[7] = target: T4, Fibroblast growth factor receptor substrate 2 (Homo sapiens) (UniProt Q8WU20); test: Inhibition of FRS2 autophosphorylation in human KATO III cells at 1 to 10 nM measured after 24 hrs by Western blot analysis; format: cell-based; conditions: KATO III stomach cancer cell line, dose 1-10 nM
T4 sequence (whole entry): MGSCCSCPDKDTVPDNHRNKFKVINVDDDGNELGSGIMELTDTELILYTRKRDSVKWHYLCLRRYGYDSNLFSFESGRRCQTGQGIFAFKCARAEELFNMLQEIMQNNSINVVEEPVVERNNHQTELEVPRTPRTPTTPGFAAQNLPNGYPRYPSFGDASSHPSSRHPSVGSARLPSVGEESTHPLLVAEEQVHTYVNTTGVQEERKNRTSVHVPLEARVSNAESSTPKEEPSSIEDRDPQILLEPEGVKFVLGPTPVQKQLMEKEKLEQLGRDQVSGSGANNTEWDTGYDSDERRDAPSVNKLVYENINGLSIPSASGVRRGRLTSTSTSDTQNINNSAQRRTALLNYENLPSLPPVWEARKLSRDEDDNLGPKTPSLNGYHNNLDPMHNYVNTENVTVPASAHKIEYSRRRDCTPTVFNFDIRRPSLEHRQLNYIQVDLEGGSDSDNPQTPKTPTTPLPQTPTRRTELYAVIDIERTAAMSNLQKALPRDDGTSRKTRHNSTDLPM

[8] = target: T3, Fibroblast growth factor receptor 1
Target sequence in this assay (P11362 whole entry): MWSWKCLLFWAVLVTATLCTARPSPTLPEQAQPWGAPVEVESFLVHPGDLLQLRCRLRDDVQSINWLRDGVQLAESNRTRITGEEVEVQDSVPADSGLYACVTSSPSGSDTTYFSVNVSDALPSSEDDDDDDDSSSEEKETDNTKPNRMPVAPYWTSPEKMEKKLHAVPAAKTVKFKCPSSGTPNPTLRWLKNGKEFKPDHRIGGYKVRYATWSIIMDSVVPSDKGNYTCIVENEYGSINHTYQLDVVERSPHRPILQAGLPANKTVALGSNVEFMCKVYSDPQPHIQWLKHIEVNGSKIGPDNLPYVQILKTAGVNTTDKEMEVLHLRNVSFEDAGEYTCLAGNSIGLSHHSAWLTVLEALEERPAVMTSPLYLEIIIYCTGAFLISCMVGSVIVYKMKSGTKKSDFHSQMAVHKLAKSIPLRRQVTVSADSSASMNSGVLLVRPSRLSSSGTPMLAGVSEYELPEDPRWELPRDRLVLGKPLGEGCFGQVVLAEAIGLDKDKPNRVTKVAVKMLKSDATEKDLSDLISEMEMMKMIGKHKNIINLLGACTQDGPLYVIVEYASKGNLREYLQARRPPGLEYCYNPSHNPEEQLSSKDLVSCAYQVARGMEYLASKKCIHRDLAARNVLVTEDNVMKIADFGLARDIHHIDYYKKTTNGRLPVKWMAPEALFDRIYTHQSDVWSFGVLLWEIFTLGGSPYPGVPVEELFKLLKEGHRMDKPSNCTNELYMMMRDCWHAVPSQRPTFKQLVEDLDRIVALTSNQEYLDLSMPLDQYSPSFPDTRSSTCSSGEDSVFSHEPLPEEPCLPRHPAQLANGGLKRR
Description: Inhibition of FGFR1 (unknown origin)

[9] = target: T1, Fibroblast growth factor receptor 3
Target sequence in this assay (P22607 whole entry): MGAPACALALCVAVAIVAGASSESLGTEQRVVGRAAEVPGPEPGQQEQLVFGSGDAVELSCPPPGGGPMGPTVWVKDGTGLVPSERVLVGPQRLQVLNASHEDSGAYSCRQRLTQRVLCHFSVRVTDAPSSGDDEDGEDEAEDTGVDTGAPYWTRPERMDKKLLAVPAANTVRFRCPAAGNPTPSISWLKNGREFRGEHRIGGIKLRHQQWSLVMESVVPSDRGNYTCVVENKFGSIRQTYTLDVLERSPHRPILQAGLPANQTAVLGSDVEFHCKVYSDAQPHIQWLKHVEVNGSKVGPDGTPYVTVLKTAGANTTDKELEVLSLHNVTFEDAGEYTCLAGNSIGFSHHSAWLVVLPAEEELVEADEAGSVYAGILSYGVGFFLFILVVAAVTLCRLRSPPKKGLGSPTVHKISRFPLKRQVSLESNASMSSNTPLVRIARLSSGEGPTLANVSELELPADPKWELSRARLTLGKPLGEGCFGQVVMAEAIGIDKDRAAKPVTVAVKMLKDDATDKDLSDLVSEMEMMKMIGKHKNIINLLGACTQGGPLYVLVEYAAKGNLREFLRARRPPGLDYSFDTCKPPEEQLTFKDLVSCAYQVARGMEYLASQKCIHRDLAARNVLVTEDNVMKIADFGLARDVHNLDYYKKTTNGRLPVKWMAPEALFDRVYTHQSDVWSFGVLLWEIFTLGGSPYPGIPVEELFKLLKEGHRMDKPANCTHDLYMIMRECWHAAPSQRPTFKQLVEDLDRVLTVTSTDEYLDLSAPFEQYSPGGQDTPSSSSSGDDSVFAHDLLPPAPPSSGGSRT
Description: Inhibition of FGFR3 (unknown origin)

[10] = target: T2, Fibroblast growth factor receptor 4
Target sequence in this assay (P22455 whole entry): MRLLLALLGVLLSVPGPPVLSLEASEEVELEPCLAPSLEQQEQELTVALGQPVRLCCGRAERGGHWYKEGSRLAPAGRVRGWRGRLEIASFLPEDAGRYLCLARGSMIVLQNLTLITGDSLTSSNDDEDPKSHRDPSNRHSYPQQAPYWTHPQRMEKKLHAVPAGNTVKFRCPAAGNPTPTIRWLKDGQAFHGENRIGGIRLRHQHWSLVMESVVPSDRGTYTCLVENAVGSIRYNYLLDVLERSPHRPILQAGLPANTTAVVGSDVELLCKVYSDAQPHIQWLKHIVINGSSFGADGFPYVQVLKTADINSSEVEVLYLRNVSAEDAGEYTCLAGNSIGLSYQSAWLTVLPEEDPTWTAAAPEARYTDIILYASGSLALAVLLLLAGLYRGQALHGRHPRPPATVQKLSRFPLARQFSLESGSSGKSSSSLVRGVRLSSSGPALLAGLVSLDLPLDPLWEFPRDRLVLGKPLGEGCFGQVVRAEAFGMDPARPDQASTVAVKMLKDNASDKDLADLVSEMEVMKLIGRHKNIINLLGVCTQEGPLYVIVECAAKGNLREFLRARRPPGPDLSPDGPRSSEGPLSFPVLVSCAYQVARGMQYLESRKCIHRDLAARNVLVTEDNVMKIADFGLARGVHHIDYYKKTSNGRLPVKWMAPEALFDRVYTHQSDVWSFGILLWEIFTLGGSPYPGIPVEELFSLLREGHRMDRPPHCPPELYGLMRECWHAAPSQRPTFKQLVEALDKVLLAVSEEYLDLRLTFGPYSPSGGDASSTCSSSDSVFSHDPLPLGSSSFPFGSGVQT
Description: Inhibition of FGFR4 (unknown origin)

BaF3 [11] = test: Antiproliferative activity against mouse BaF3 cells stably expressing wild type ETV6-FGFR1 fusion protein incubated for 72 hrs by CCK-8 assay; format: functional, cell-based; conditions: BaF3, 72 h
BaF3 [12] = test: Antiproliferative activity against mouse BaF3 cells stably expressing wild type ETV6-FGFR2 fusion protein incubated for 72 hrs by CCK-8 assay; format: functional, cell-based; conditions: BaF3, 72 h
BaF3 [13] = test: Antiproliferative activity against mouse BaF3 cells stably expressing wild type ETV6-FGFR3 fusion protein incubated for 72 hrs by CCK-8 assay; format: functional, cell-based; conditions: BaF3, 72 h
BaF3 [14] = test: Antiproliferative activity against mouse BaF3 cells stably expressing wild type ETV6-FGFR4 fusion protein incubated for 72 hrs by CCK-8 assay; format: functional, cell-based; conditions: BaF3, 72 h
AN3-CA [15] = test: Inhibition of cell migration in adherent human AN3-CA cells overexpressing FGFR2 assessed as inhibition of lateral migration at 10 nM incubated for 48 hrs by wound healing assay relative to control; format: functional
[16] = tested on: KATO III stomach cancer cell line; test: Induction of cell cycle arrest at G0/G1 phase in FGFR2 amplified human KATO III cells at 0.1 to 10 nM incubated for 24 hrs by PI staining based flow cytometry analysis; format: functional; conditions: dose 0.1-10 nM
[17] = tested on: KATO III stomach cancer cell line; test: Induction of cell cycle arrest at G0/G1 phase in FGFR2 amplified human KATO III cells assessed as inhibition of cyclin D1 protein expression at 0.1 to 10 nM by Western blot analysis; format: functional, cell-based; conditions: dose 0.1-10 nM
[18] = tested on: KATO III stomach cancer cell line; test: Induction of cell cycle arrest at G0/G1 phase in FGFR2 amplified human KATO III cells assessed as inhibition of CDK4 protein expression at 0.1 to 10 nM by Western blot analysis; format: functional, cell-based; conditions: dose 0.1-10 nM
[19] = tested on: KATO III stomach cancer cell line; test: Induction of cell cycle arrest at G0/G1 phase in FGFR2 amplified human KATO III cells assessed as inhibition of CDK6 protein expression at 0.1 to 10 nM by Western blot analysis; format: functional, cell-based; conditions: dose 0.1-10 nM
[20] = Cmax in overnight fasted mouse at 1 mg/kg, iv administered as single dose by LC-MS/MS analysis; format: ADME, organism-based; conditions: in vivo
[21] = Half life in overnight fasted mouse at 1 mg/kg, iv administered as single dose by LC-MS/MS analysis; format: ADME, organism-based; conditions: in vivo
[22] = AUC (0 to t) in overnight fasted mouse at 1 mg/kg, iv administered as single dose by LC-MS/MS analysis; format: ADME, organism-based; conditions: in vivo
[23] = Cmax in overnight fasted mouse at 10 mg/kg, po administered as single dose by LC-MS/MS analysis; format: ADME, organism-based; conditions: in vivo
[24] = Tmax in overnight fasted mouse at 10 mg/kg, po administered as single dose by LC-MS/MS analysis; format: ADME, organism-based; conditions: in vivo
[25] = Half life in overnight fasted mouse at 10 mg/kg, po administered as single dose by LC-MS/MS analysis; format: ADME, organism-based; conditions: in vivo
[26] = AUC (0 to t) in overnight fasted mouse at 10 mg/kg, po administered as single dose by LC-MS/MS analysis; format: ADME, organism-based; conditions: in vivo
[27] = Oral bioavailability in overnight fasted mouse at 10 mg/kg administered as single dose by LC-MS/MS analysis; format: ADME, organism-based; conditions: in vivo
[28] = target: T1, Fibroblast growth factor receptor 3; test: Induction of FGFR3 degradation in human MCF7 cells assessed as reduction in FGFR3 level measured after 24 hrs by Western blot analysis; format: cell-based
Target sequence in this assay (P22607 whole entry): as the sequence (P22607 whole entry) above

[29] = target: T2, Fibroblast growth factor receptor 4; test: Induction of FGFR4 degradation in human Huh-7 cells assessed as reduction in FGFR4 level measured after 24 hrs by Western blot analysis; format: cell-based
Target sequence in this assay (P22455 whole entry): as the sequence (P22455 whole entry) above

[30] = target: T3, Fibroblast growth factor receptor 1; test: Induction of FGFR1 degradation in human BXPC-3 cells assessed as reduction in FGFR1 level measured after 24 hrs by Western blot analysis; format: cell-based
Target sequence in this assay (P11362 whole entry): as the sequence (P11362 whole entry) above

[31] = tested on: KATO III stomach cancer cell line; test: cells; conditions: Homo sapiens, 72 h
Description: Antiproliferative activity against FGFR2 amplified human KATO III cells measured after 3 days by MTT assay

SNU-16 = test: cells; conditions: Homo sapiens, SNU-16, 72 h
Description: Antiproliferative activity against FGFR2 amplified human SNU-16 cells measured after 72 hrs by MTT assay

AN3-CA [32] = test: cells; conditions: Homo sapiens, 72 h
Description: Antiproliferative activity against human AN3-CA cells overexpressing FGFR2 measured after 72 hrs by MTT assay

NCI-H1975 = test: cells; conditions: Homo sapiens, NCI-H1975, 72 h
A2780 = test: cells; conditions: Homo sapiens, A2780, 72 h
BXPC-3 = test: cells; conditions: Homo sapiens, BXPC-3, 72 h
cells = conditions: Homo sapiens, Huh-7, 72 h
MDA-MB-231 = test: cells; conditions: Homo sapiens, MDA-MB-231, 72 h
SNU-449 = test: cells; conditions: Homo sapiens, SNU-449, 72 h
HCT-116 = test: cells; conditions: Homo sapiens, HCT-116, 72 h
MCF7 = test: cells; conditions: Homo sapiens, MCF7, 72 h
in vitro [33] = conditions: human, L02 cells
in vitro [34] = conditions: human, HEK293T cells

Question: For `COc1cc(OC)c(Cl)c(NC(=O)N(C)c2cc(Nc3ccc(N4CCN(CC(=O)N[C@H](C(=O)N5C[C@H](O)C[C@H]5C(=O)N[C@@H](C)c5ccc(-c6scnc6C)cc5)C(C)(C)C)CC4)cc3)ncn2)c1Cl`, which DC50 [1] is on record?
Answer: 70 nM

Question: With `C[C@@H](Oc1ccc2[nH]nc(/C=C/c3cnn(CCNC(=O)CCCCCNc4ccc5c(c4)C(=O)N(C4CCC(=O)NC4=O)C5=O)c3)c2c1)c1c(Cl)cncc1Cl` (stereo partly drawn) as the compound, how does the Activity [2] read?
Answer: inactive

Question: What about the Activity [3] of the same compound?
Answer: inactive

Question: And the Activity [4]?
Answer: 30%

Question: What about the Activity [5] of the same compound?
Answer: inactive

Question: And the inhibition [6]?
Answer: Active

Question: What about the inhibition [7] of the same compound?
Answer: Active

Question: What about the IC50 [8] of the same compound?
Answer: 1.47 nM

Question: And the IC50 [9]?
Answer: 1.26 nM

Question: And the IC50 [10]?
Answer: 15.1 nM

Question: And the IC50 (BaF3 [11])?
Answer: 27.5 nM

Question: And the IC50 (BaF3 [12])?
Answer: 0.91 nM

Question: And the IC50 (BaF3 [13])?
Answer: 0.2 nM

Question: And the IC50 (BaF3 [14])?
Answer: 32.7 nM

Question: And the inhibition at 0.01 µM (AN3-CA [15])?
Answer: > 15%

Question: What about the Activity [16] of the same compound?
Answer: Active

Question: What about the Activity [17] of the same compound?
Answer: Active

Question: And the Activity [18]?
Answer: Active

Question: And the Activity [19]?
Answer: Active

Question: What about the Cmax [20] of the same compound?
Answer: 1940 ng/mL

Question: And the half-life [21]?
Answer: 4.14 min

Question: What about the AUC(0-t) [22] of the same compound?
Answer: 151 ng·h/mL

Question: And the Cmax [23]?
Answer: 19.4 ng/mL

Question: And the Tmax [24]?
Answer: 30 min

Question: What about the half-life [25] of the same compound?
Answer: 45 min

Question: And the AUC(0-t) [26]?
Answer: 9.61 ng·h/mL

Question: And the bioavailability [27]?
Answer: 0.64%

Question: What about the DC50 [28] of the same compound?
Answer: > 300 nM

Question: What about the DC50 [29] of the same compound?
Answer: > 300 nM

Question: What about the DC50 [30] of the same compound?
Answer: > 300 nM

Question: What about the IC50 [31] of the same compound?
Answer: 0.79 nM

Question: What about the IC50 (SNU-16) of the same compound?
Answer: 0.207 nM

Question: What about the IC50 (AN3-CA [32]) of the same compound?
Answer: 4.63 nM

Question: And the IC50 (NCI-H1975)?
Answer: 2240 nM

Question: What about the IC50 (A2780) of the same compound?
Answer: 627 nM

Question: And the IC50 (BXPC-3)?
Answer: 997 nM

Question: And the IC50 (cells)?
Answer: > 5000 nM

Question: What about the IC50 (MDA-MB-231) of the same compound?
Answer: 2520 nM

Question: What about the IC50 (SNU-449) of the same compound?
Answer: 923 nM

Question: And the IC50 (HCT-116)?
Answer: 1910 nM

Question: What about the IC50 (MCF7) of the same compound?
Answer: 2980 nM

Question: What about the IC50 at 72 h (in vitro [33]) of the same compound?
Answer: > 5000 nM

Question: What about the IC50 at 72 h (in vitro [34]) of the same compound?
Answer: 2140 nM
